According to PubChem BioAssay AID330 (DTP/NCI, 2004):
“And” between values parts separate entries of the source, which are not always exact repeats. Equal values may be shown once. Inconclusive results and toxic doses are left out. How the source made its calls: active means survival T/C of 150% or more; inactive means T/C below 125% in these data.

Test system: P388 leukemia ip, CD2F1 mice, survival T/C
Experiment: NCI In Vivo Anticancer Drug Screen. Data for tumor model P388 Leukemia (intraperitoneal) in CD2F1 (CDF1) mice
Conditions: endpoint: median survival time, higher = longer survival
Outline: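 Mice carrying the transplanted tumor received test compound or vehicle. Survival was recorded in each group, and the value is the treated-group measurement divided by that of the vehicle-treated control group.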

[1] = dose: 60.0 mg/kg/injection, schedule: Q01DX005 (ip), vehicle: saline with Tween-80
[2] = dose: 120.0 mg/kg/injection, schedule: Q01DX005 (ip), vehicle: saline with Tween-80
[3] = dose: 240.0 mg/kg/injection, schedule: Q01DX005 (ip), vehicle: saline with Tween-80
[4] = dose: 25.0 mg/kg/injection, schedule: Q01DX005 (ip), vehicle: saline with Tween-80
[5] = dose: 50.0 mg/kg/injection, schedule: Q01DX005 (ip), vehicle: saline with Tween-80
[6] = dose: 50.0 mg/kg/injection, schedule: Q01DX005 (ip), vehicle: Klucel (hydroxypropylcellulose) (HPC)
[7] = dose: 50.0 mg/kg/injection, schedule: Q01DX009 (ip), vehicle: saline
[8] = dose: 100.0 mg/kg/injection, schedule: Q01DX009 (ip), vehicle: saline
[9] = dose: 100.0 mg/kg/injection, schedule: Q04DX003 (ip), vehicle: saline with Tween-80
[10] = dose: 200.0 mg/kg/injection, schedule: Q01DX009 (ip), vehicle: saline
[11] = dose: 400.0 mg/kg/injection, schedule: Q04DX003 (ip), vehicle: saline with Tween-80
[12] = dose: 100.0 mg/kg/injection, schedule: Q01DX005 (ip), vehicle: saline with Tween-80
[13] = dose: 200.0 mg/kg/injection, schedule: Q01DX005 (ip), vehicle: saline with Tween-80
[14] = dose: 50.0 mg/kg/injection, schedule: Q01DX009 (ip), vehicle: other
[15] = dose: 100.0 mg/kg/injection, schedule: Q01DX009 (ip), vehicle: other
[16] = dose: 100.0 mg/kg/injection, schedule: Q01DX009 (ip), vehicle: saline with Tween-80
[17] = dose: 200.0 mg/kg/injection, schedule: Q01DX009 (ip), vehicle: saline with Tween-80
[18] = dose: 50.0 mg/kg/injection, schedule: Q01DX009 (ip), vehicle: saline with Tween-80

Measured: T/C

CC1(C)CC2C=C(C=O)C3(C=O)CC3(C)C2C1 (stereo not drawn)
inactive: dose: 0.78 mg/kg/injection, schedule: Q01DX009 (ip), vehicle: Klucel (hydroxypropylcellulose) (HPC) 96 % of control | dose: 1.56 mg/kg/injection, schedule: Q01DX009 (ip), vehicle: Klucel (hydroxypropylcellulose) (HPC) 112 % of control | dose: 3.12 mg/kg/injection, schedule: Q01DX009 (ip), vehicle: Klucel (hydroxypropylcellulose) (HPC) 111 % of control | dose: 6.25 mg/kg/injection, schedule: Q01DX009 (ip), vehicle: Klucel (hydroxypropylcellulose) (HPC) 111 % of control

O=c1[nH]c2cc(Cl)ccc2nc1/C=C(\O)c1ccco1
inactive: [1] 102 % of control | [2] 94 % of control | [3] 102 % of control

COC(=O)c1ccc(/C=C(\c2ccc([N+](=O)[O-])o2)S(=O)(=O)c2ccc(NC(C)=O)cc2)o1
inactive: dose: 50.0 mg/kg/injection, schedule: Q01DX009 (ip), vehicle: suspension in saline 95 % of control | dose: 100.0 mg/kg/injection, schedule: Q01DX009 (ip), vehicle: suspension in saline 88 % of control

COc1cccc2c1C(=O)c1c(O)c3c(c(O)c1C2=O)C[C@@](O)(C(C)=O)C[C@@H]3OC1CC(N=C(N)CCSSCCC(N)=NC2CC(O[C@H]3C[C@](O)(C(C)=O)Cc4c(O)c5c(c(O)c43)C(=O)c3c(OC)cccc3C5=O)OC(C)C2O)C(O)C(C)O1 (stereo partly drawn)
inactive: dose: 3.12 mg/kg/injection, schedule: Q04DX003 (ip), vehicle: distilled water + Tween-80 115 % of control | dose: 6.25 mg/kg/injection, schedule: Q04DX003 (ip), vehicle: distilled water + Tween-80 108 % of control and 122 % of control | dose: 12.5 mg/kg/injection, schedule: Q04DX003 (ip), vehicle: distilled water + Tween-80 118 % of control | dose: 25.0 mg/kg/injection, schedule: Q04DX003 (ip), vehicle: distilled water + Tween-80 116 % of control | dose: 50.0 mg/kg/injection, schedule: Q04DX003 (ip), vehicle: distilled water + Tween-80 105 % of control | dose: 100.0 mg/kg/injection, schedule: Q04DX003 (ip), vehicle: distilled water + Tween-80 121 % of control

COC1=CC(=O)C(C(c2ccc(OC)cc2)N2CCOCC2)=CC1=O (stereo not drawn)
inactive: dose: 12.5 mg/kg/injection, schedule: Q01DX005 (ip), vehicle: saline with Tween-80 109 % of control | [4] 109 % of control | [5] 101 % of control and 109 % of control

C/C(=N\Nc1ccc2ccccc2n1)c1ccccn1
inactive: dose: 12.5 mg/kg/injection, schedule: Q01DX005 (ip), vehicle: Klucel (hydroxypropylcellulose) (HPC) 107 % of control | dose: 25.0 mg/kg/injection, schedule: Q01DX005 (ip), vehicle: Klucel (hydroxypropylcellulose) (HPC) 106 % of control | [6] 114 % of control and 116 % of control

COc1cccc2c1C(=O)c1c(O)c3c(c(O)c1C2=O)C[C@@](O)(C(=O)CO)C[C@@H]3OC1CC(NC(=S)Nc2ccc3ccccc3c2)C(O)C(C)O1 (stereo partly drawn)
inactive: dose: 3.13 mg/kg/injection, schedule: Q01DX009 (ip), vehicle: saline 92 % of control | dose: 6.25 mg/kg/injection, schedule: Q01DX009 (ip), vehicle: saline 99 % of control | dose: 12.5 mg/kg/injection, schedule: Q01DX009 (ip), vehicle: saline 99 % of control | dose: 25.0 mg/kg/injection, schedule: Q01DX009 (ip), vehicle: saline 101 % of control | [7] 108 % of control

O=C1c2ccccc2-c2c(Br)cc(Br)c(NC(=O)C(Cl)Cl)c21
inactive: [1] 96 % of control | [2] 96 % of control | [3] 92 % of control

C=CCc1ccccc1/C=N/NS(=O)(=O)c1ccc(C)cc1
inactive: dose: 100.0 mg/kg/injection, schedule: Q04DX002 (ip), vehicle: saline with Tween-80 100 % of control | dose: 200.0 mg/kg/injection, schedule: Q04DX002 (ip), vehicle: saline with Tween-80 98 % of control | dose: 400.0 mg/kg/injection, schedule: Q04DX002 (ip), vehicle: saline with Tween-80 97 % of control

COCCCNS(=O)(=O)c1ncnc2nc[nH]c12
inactive: [8] 104 % of control | [9] 108 % of control | [10] 100 % of control | dose: 400.0 mg/kg/injection, schedule: Q01DX009 (ip), vehicle: saline 86 % of control | [11] 108 % of control

Cc1c(COC(=O)NC(C)C)c(COC(=O)NC(C)C)c2n1CCS2(=O)=O
inactive: [4] 92 % of control | [5] 100 % of control | [12] 92 % of control | [13] 86 % of control and 91 % of control | dose: 400.0 mg/kg/injection, schedule: Q01DX005 (ip), vehicle: saline with Tween-80 91 % of control

COc1cccc(C=O)c1OS(=O)(=O)c1ccc(C)cc1
inactive: dose: 25.0 mg/kg/injection, schedule: Q01DX009 (ip), vehicle: other 101 % of control | [14] 108 % of control | [15] 108 % of control

CNC(=O)N(C)CP(=O)(O)OC
inactive: [7] 100 % of control | [8] 98 % of control | [10] 91 % of control

COC(=N)c1nc2c(N)nc(-c3ccccc3)nc2[nH]c1=O
inactive: [16] 98 % of control | [17] 98 % of control | dose: 400.0 mg/kg/injection, schedule: Q01DX009 (ip), vehicle: saline with Tween-80 97 % of control

Cc1ccc(S(=O)(=O)Nn2nnc(-c3ccccc3)n2)cc1
inactive: dose: 50.0 mg/kg/injection, schedule: Q04DX003 (ip), vehicle: Klucel (hydroxypropylcellulose) (HPC) 98 % of control | dose: 100.0 mg/kg/injection, schedule: Q04DX003 (ip), vehicle: Klucel (hydroxypropylcellulose) (HPC) 102 % of control | dose: 200.0 mg/kg/injection, schedule: Q04DX003 (ip), vehicle: Klucel (hydroxypropylcellulose) (HPC) 102 % of control

CCN(CC)CC1(CC(=O)N2c3ccccc3Sc3ccccc32)COC1
inactive: [7] 107 % of control | [8] 100 % of control | [10] 105 % of control

O=[N+]([O-])c1cc2no[n+]([O-])c2cc1N1CCCCC1
inactive: dose: 3.75 mg/kg/injection, schedule: Q01DX009 (ip), vehicle: saline 97 % of control | dose: 3.75 mg/kg/injection, schedule: Q01DX009 (ip), vehicle: suspension in saline 94 % of control | dose: 7.5 mg/kg/injection, schedule: Q01DX009 (ip), vehicle: saline 114 % of control | dose: 7.5 mg/kg/injection, schedule: Q01DX009 (ip), vehicle: suspension in saline 103 % of control | dose: 15.0 mg/kg/injection, schedule: Q01DX009 (ip), vehicle: saline 101 % of control | dose: 15.0 mg/kg/injection, schedule: Q01DX009 (ip), vehicle: suspension in saline 103 % of control | dose: 30.0 mg/kg/injection, schedule: Q01DX009 (ip), vehicle: saline 108 % of control | dose: 30.0 mg/kg/injection, schedule: Q01DX009 (ip), vehicle: suspension in saline 122 % of control

COC(=O)CC12CC3(C)CC(C)(C1)CC(CC(=O)OC)(C3)C2
inactive: [18] 99 % of control | [16] 99 % of control and 108 % of control | [17] 103 % of control and 113 % of control

COc1ccc(N2C(=O)CCSC23C(=O)N(CN2CCOCC2)c2ccccc23)cc1 (stereo not drawn)
inactive: [5] 103 % of control | [12] 106 % of control | [13] 95 % of control

O=S(=O)(O)C1CCC(O)C2[N-]CCCC21.O=S(=O)(O)C1CCC(O)C2[N-]CCCC21.[Ni+2] (stereo not drawn)
inactive: dose: 25.0 mg/kg/injection, schedule: Q01DX001 (ip), vehicle: saline 100 % of control | dose: 50.0 mg/kg/injection, schedule: Q01DX001 (ip), vehicle: saline 100 % of control | dose: 100.0 mg/kg/injection, schedule: Q01DX001 (ip), vehicle: saline 110 % of control

Nc1ncnc2nc(-c3ccc(SCc4ccccc4)cc3)[nH]c12
inactive: [1] 95 % of control | [2] 94 % of control | [3] 93 % of control

N#CC1CC2OC1CC(=O)C2(O)c1occc(=O)c1O (stereo not drawn)
inactive: [18] 100 % of control | [16] 107 % of control | [17] 105 % of control

Cn1c(O)c2c(c1O)C(=Nc1ccccc1)c1ccccc1C2=O
inactive: [6] 86 % of control | dose: 100.0 mg/kg/injection, schedule: Q01DX005 (ip), vehicle: Klucel (hydroxypropylcellulose) (HPC) 89 % of control | dose: 200.0 mg/kg/injection, schedule: Q01DX005 (ip), vehicle: Klucel (hydroxypropylcellulose) (HPC) 94 % of control

CC(C)NC(=S)NCc1ccc(Cl)c(Cl)c1
inactive: [14] 88 % of control | [15] 96 % of control

CSc1nc2ccc(N)cc2s1
inactive: [9] 97 % of control | dose: 200.0 mg/kg/injection, schedule: Q04DX003 (ip), vehicle: saline with Tween-80 99 % of control | [11] 93 % of control
